Read-outs that look alike come from different tables or passages of the source.
Experiments:
[1] = biological target: MMP-13CD (catalytic domain of collagenase-3) (Homo sapiens, UniProt P45452); test: Thiopeptolide substrate hydrolysis inhibition assay, MMP-13CD; type: biochemical
From the text: (§1) Thiopeptolide substrates show virtually no decomposition or hydrolysis at or below neutral pH in the absence of a matrix metalloproteinase enzyme.

[2] = biological target: T1, MMP-2FL (full length Gelatinase A) (Homo sapiens, UniProt P08253); test: Thiopeptolide substrate hydrolysis inhibition assay, MMP-2FL; type: biochemical; conditions: Table II; micromolar concentration; HEPES pH 7.0
T1 sequence (P08253 110-660): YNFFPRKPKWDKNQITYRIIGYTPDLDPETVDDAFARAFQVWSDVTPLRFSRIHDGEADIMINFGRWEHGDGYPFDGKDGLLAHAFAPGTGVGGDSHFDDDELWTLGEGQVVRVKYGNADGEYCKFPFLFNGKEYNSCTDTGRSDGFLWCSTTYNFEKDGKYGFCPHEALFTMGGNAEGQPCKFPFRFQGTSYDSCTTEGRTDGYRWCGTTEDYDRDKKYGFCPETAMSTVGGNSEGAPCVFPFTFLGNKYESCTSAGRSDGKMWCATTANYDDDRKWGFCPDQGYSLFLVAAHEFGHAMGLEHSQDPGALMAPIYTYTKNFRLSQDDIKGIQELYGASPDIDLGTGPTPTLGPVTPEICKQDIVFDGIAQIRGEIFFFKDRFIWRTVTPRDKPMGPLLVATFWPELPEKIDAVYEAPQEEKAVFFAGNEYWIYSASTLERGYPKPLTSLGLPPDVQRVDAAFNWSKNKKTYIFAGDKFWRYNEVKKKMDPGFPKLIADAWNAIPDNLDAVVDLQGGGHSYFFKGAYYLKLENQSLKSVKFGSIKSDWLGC
From the text: as §1

[3] = biological target: MMP-3CD (catalytic domain of stromelysin-1) (Homo sapiens, UniProt P08254); test: Thiopeptolide substrate hydrolysis inhibition assay, MMP-3CD; type: biochemical; conditions: Table II; micromolar concentration; MES buffer pH 6.0
Experimental: as §1
It should be appreciated that the assay buffer used with MMP-3CD is 50 mM N-morpholinoethanesulfonate (“MES”) at pH 6.0 rather than the HEPES buffer at pH 7.0 described above.

[4] = biological target: T2, MMP-7FL (full-length matrilysin) (Homo sapiens, UniProt P09237); test: Thiopeptolide substrate hydrolysis inhibition assay, MMP-7FL; type: biochemical; conditions: Table II; micromolar concentration; HEPES pH 7.0
T2 sequence (P09237 95-267): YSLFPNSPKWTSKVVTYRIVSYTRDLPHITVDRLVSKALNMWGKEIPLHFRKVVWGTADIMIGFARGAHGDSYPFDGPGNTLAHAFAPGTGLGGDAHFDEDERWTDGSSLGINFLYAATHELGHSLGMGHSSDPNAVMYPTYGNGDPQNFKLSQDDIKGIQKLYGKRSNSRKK
From the text: as §1

[5] = biological target: MMP-9FL (full-length Gelatinase B) (Homo sapiens, UniProt P14780); test: Thiopeptolide substrate hydrolysis inhibition assay, MMP-9FL; type: biochemical; conditions: Table II; micromolar concentration; HEPES pH 7.0
From the text: as §1

MMP-12CD = biological target: T3, MMP-12CD (Homo sapiens, UniProt P39900); test: Thiopeptolide substrate hydrolysis inhibition assay, MMP-12CD; type: biochemical; conditions: Table II; micromolar concentration; HEPES pH 7.0
T3 construct: 12CD
From the text: as §1

[6] = biological target: MMP-14CD (catalytic domain of MMP-14) (Homo sapiens, UniProt P50281); test: Thiopeptolide substrate hydrolysis inhibition assay, MMP-14CD; type: biochemical; conditions: Table II; micromolar concentration; HEPES pH 7.0
From the text: as §1

[7] = biological target: T4, MMP-1FL (full-length interstitial collagenase) (Homo sapiens, UniProt P03956); test: Thiopeptolide substrate hydrolysis inhibition assay, MMP-1FL; type: biochemical; conditions: Table II; micromolar concentration; HEPES pH 7.0
T4 sequence (P03956 100-469): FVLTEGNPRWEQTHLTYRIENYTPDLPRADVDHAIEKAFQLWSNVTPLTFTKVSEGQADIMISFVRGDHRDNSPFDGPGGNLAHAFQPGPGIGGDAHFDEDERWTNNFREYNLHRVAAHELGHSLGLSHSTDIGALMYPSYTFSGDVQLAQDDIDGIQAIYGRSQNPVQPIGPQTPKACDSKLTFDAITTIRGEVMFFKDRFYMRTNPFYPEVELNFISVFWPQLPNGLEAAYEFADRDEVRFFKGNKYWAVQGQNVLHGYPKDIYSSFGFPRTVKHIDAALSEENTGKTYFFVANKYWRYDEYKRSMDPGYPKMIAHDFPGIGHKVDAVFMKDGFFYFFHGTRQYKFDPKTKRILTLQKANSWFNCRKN
From the text: as §1

[8] = Table I, thiopeptolide substrate, HEPES pH 7.0, 22° C., read-out: MMP-13CD IC50
[9] = Table II, micromolar concentration, HEPES pH 7.0, read-out: IC50 MMP-13CD

MMP-3CD (catalytic domain of stromelysin-1), sequence (P08254 100-272 limits assumed): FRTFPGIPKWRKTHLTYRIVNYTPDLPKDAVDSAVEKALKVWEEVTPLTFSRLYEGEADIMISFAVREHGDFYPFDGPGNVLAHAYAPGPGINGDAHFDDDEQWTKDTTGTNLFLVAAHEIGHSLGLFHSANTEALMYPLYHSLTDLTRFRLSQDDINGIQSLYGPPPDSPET
T3 sequence (P39900 106-263 limits assumed): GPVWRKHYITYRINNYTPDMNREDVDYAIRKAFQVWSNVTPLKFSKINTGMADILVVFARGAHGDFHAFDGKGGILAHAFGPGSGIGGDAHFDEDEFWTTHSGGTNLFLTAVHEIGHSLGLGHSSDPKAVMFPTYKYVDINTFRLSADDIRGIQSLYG
MMP-9FL (full-length Gelatinase B), sequence (P14780 94-707, species assumed): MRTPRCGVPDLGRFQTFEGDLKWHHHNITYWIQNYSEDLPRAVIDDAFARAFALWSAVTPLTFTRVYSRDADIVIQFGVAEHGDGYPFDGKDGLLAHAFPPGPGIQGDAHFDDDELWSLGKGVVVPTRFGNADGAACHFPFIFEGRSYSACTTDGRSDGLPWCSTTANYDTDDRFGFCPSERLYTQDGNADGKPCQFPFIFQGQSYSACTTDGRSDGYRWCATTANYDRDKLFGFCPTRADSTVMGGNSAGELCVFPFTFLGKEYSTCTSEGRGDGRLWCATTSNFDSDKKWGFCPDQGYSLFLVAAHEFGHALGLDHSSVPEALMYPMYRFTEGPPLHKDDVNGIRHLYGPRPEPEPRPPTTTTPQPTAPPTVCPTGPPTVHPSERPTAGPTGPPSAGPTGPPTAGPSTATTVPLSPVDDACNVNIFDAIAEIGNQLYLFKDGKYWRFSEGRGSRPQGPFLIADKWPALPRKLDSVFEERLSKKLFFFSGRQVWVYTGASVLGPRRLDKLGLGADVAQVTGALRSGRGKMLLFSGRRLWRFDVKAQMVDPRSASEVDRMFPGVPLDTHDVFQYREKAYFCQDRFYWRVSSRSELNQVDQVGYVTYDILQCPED

Row | Compound | IC50 [1, 8] [µM] | IC50 [1, 9] [µM] | IC50 [2] [µM] | IC50 [3] [µM] | IC50 [4] [µM] | IC50 [5] [µM] | IC50 (MMP-12CD) [µM] | IC50 [6] [µM] | IC50 [7] [µM] | melting point [°C]
1 | CCCCNC(=O)NS(=O)(=O)c1ccc(Cn2c(=O)c3cc(C(=O)NCc4cccc(OC)c4)sc3n(C)c2=O)cc1 [Example 231a] | 0.00895 | 0.009 | 50 | 13 | 46 | 91 | 30 | 30 | – | –
2 | COc1ccc(CNC(=O)c2cc3c(=O)n(Cc4ccc([N+](=O)[O-])nc4)c(=O)n(C)c3s2)cc1 [Example 369, 1-Methyl-3-(6-nitro-pyridin-3-ylmethyl)-2,4-dioxo-1,2,3,4-tetrahydro-thieno[2,3-d]pyrimidine-6-carboxylic acid 4-methoxy-benzylamide] | 1.04 | 1.04 | 30 | 10 | 30 | 30 | 30 | 30 | 10 | –
3 | COc1ccc(CNC(=O)c2cc3c(=O)n(CCOc4ccc(Br)cc4)c(=O)n(C)c3s2)cc1 [Example 232, 3-[2-(4-Bromo-phenoxy)-ethyl]-1-methyl-2,4-dioxo-1,2,3,4-tetrahydro-thieno[2,3-d]pyrimidine-6-carboxylic acid 4-methoxy-benzylamide] | 0.175 | 0.18 | 30 | 17 | 30 | 30 | 30 | 30 | 30 | –
4 | COc1cccc(CNC(=O)c2cc3c(=O)n(CCS(=O)(=O)c4ccc(Cl)cc4)c(=O)n(C)c3s2)c1 [Example 246, 3-[2-(4-Chloro-benzenesulfonyl)-ethyl]-1-methyl-2,4-dioxo-1,2,3,4-tetrahydro-thieno[2,3-d]pyrimidine-6-carboxylic acid 3-methoxy-benzylamide] | 5.65 | 5.65 | 30 | 23 | 48 | 30 | 30 | 36 | – | –
5 | O=C(OCc1ccccc1)c1cc2c(=O)n(Cc3ccccc3)c(=O)[nH]c2s1 [Example 1, 3-Benzyl-2,4-dioxo-1,2,3,4-tetrahydro-thieno[2,3-d]pyrimidine-6-carboxylic acid benzyl ester] | 0.74 | 0.61 | – | 18 | – | – | – | – | – | 195 to 197
6 | COc1ccc(CNC(=O)c2cc3c(=O)n(Cc4ccc(S(N)(=O)=O)cc4)c(=O)n(C)c3s2)cc1 [Example 217, 1-Methyl-2,4-dioxo-3-(4-sulfamoyl-benzyl)-1,2,3,4-tetrahydro-thieno[2,3-d]pyrimidine-6-carboxylic acid 4-methoxy-benzylamide] | 0.0785 | 0.0785 | – | 27 | – | 30 | 30 | – | – | –
7 | O=C(OCc1ccncc1)c1cc2c(=O)n(Cc3ccc(Br)cc3)c(=O)[nH]c2s1 [Example 49, 3-(4-Bromo-benzyl)-2,4-dioxo-1,2,3,4-tetrahydro-thieno[2,3-d]pyrimidine-6-carboxylic acid pyridin-4-ylmethyl ester] | 0.26 | 0.26 | – | 23 | – | – | – | – | – | –
8 | COC(=O)c1ccc(Cn2c(=O)c3cc(C(N)=O)sc3n(C)c2=O)cc1C [Example 249a] | 0.64 | 0.64 | 30 | – | 30 | 30 | – | 30 | – | –
9 | COc1cccc(CNC(=O)c2cc3c(=O)n(Cc4ccc(CC(=O)O)cc4)c(=O)n(C)c3s2)c1 [Example 39, {4-[6-(3-Methoxy-benzylcarbamoyl)-1-methyl-2,4-dioxo-1,4-dihydro-2H-thieno[2,3-d]pyrimidin-3-ylmethyl]-phenyl}-acetic acid] | – | 0.0038 | – | 16 | – | – | 10 | – | – | –
10 | COC(=O)c1ccc(Cn2c(=O)c3cc(C(=O)NCc4ccc(OC)cc4)sc3n(C)c2=O)cc1OC [Example 228, 2-Methoxy-4-[6-(4-methoxy-benzylcarbamoyl)-1-methyl-2,4-dioxo-1,4-dihydro-2H-thieno[2,3-d]pyrimidin-3-ylmethyl]-benzoic acid methyl ester] | 0.435 | 0.435 | 30 | 15 | 10 | 30 | 30 | 30 | 30 | –
11 | COc1ccc(CNC(=O)c2cc3c(=O)n(Cc4cccc(OC)c4)c(=O)n(C)c3s2)cc1 [Example 63, 3-(3-Methoxy-benzyl)-1-methyl-2,4-dioxo-1,2,3,4-tetrahydro-thieno[2,3-d]pyrimidine-6-carboxylic acid 4-methoxy-benzylamide] | 0.11 | 0.11 | 30 | 18 | 30 | 30 | 30 | 30 | 30 | –
12 | CCn1c(=O)n(Cc2ccccc2)c(=O)c2cc(C(=O)OCc3ccccc3)sc21 [Example 73, 3-Benzyl-1-ethyl-2,4-dioxo-1,2,3,4-tetrahydro-thieno[2,3-d]pyrimidine-6-carboxylic acid benzyl ester] | > 100 | – | – | – | – | – | – | – | – | 147 to 148
13 | COc1cccc(CNC(=O)c2cc3c(=O)n(Cc4ccc(S(=O)(=O)N5CCC(C)CC5)cc4)c(=O)n(C)c3s2)c1 [Example 47, 1-Methyl-3-[4-(4-methyl-piperidine-1-sulfonyl)-benzyl]-2,4-dioxo-1,2,3,4-tetrahydro-thieno[2,3-d]pyrimidine-6-carboxylic acid 3-methoxy-benzylamide] | – | 0.038 | 30 | 30 | 14 | 30 | 30 | 10 | 30 | –
14 | Cc1c(C(=O)OCc2ccccc2)sc2[nH]c(=O)n(CCc3ccccc3)c(=O)c12 [Example 5, 5-Methyl-2,4-dioxo-3-phenylethyl-1,2,3,4-tetrahydro-thieno[2,3-d]pyrimidine-6-carboxylic acid benzyl ester] | 51 | – | – | – | – | – | – | – | – | 207 to 209
15 | Cn1c(=O)n(Cc2ccccc2)c(=O)c2cc(C(=O)OCc3ccncc3)sc21 [Example 303, 3-Benzyl-1-methyl-2,4-dioxo-1,2,3,4-tetrahydro-thieno[2,3-d]pyrimidine-6-carboxylic acid pyridin-4-ylmethyl ester] | 0.0036 | 0.0036 | – | 6 | 32 | 30 | – | – | – | –

Reference: patent US20030004172A1, “Fused pyrimidinone matrix metalloproteinase inhibitors” (priority 2001, published 2003)
